One test has as its system human AML MV-4-11 cells. As to the kind of experiment: Inhibition of cell proliferation in MV4-11 cells (CellTiter Aqueous One). Conditions: for IC50: MV4-11, 72 h; for Cell Proliferation activity: 72 h. It counts as cell-based. Summed up: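 Exponentially growing MV-4-11 cells (5×10^4/well) were treated immediately with two-fold dilutions of compound from 30 μM to 0.2 μM, in triplicate, for 72 h at 37° C, 5% CO2. Viability was measured by MTS absorbance at 490 nm after 3–4 h. Proliferation relative to DMSO after blank correction gave IC50.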

The test system of another test is hIL-6 mRNA. As to the kind of experiment: Inhibition of hIL-6 mRNA transcription in LPS-stimulated U937 cells. In kind it is cell-based. Particulars: Homo sapiens, U-937; PMA-differentiated U937 cells, 1 h pretreatment, 1 ug/mL LPS stimulation, 3 h; read-out: IL-6 activity (Inhibition of hIL-6 mRNA Transcription). Here is the method:
In this example, hIL-6 mRNA in tissue culture cells was quantitated to measure the transcriptional inhibition of hIL-6 when treated with a compound of the invention.
Human leukemic monocyte lymphoma U937 cells (CRL-1593.2) were plated at a density of 3.2×10^4 cells per well in a 96-well plate in 100 μL RPMI-1640 containing 10% FBS and penicillin/streptomycin, and differentiated into macrophages for 3 days in 60 ng/mL PMA ([…]) at 37° C. in 5% CO2 prior to the addition of compound. The cells were pretreated for 1 h with increasing concentrations of test compound in 0.1% DMSO prior to stimulation with 1 ug/mL lipopolysaccharide from Escherichia coli. Triplicate wells were used for each concentration. The cells were incubated at 37° C., 5% CO2 for 3 h before the cells were harvested. At time of harvest, media was removed and cells were rinsed in 200 μL PBS. Cells were harvested using the mRNA Catcher PLUS kit according to manufacturer's instructions. The eluted mRNA was then used in a one-step quantitative real-time PCR reaction using components of the RNA UltraSense™ One-Step Kit (Life Technologies) together with Applied Biosystems TaqMan® primer-probes for hIL-6 and Cyclophilin. Real-time PCR plates were run on a VIa™ 7 real time PCR machine (Applied Biosystems), data was analyzed, normalizing the Ct values for hIL-6 to an internal control, prior to determining the fold expression of each sample, relative to the control.

In another test the test system is c-myc. As to the kind of experiment: Inhibition of c-myc expression (mRNA, real-time PCR) in MV4-11 cells. It counts as cell-based. Particulars: Human AML MV4-11 cells, 3 h, cMYC mRNA. The method in brief:
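MV4-11 cells treated 3 h at 37° C with increasing compound concentrations or 0.1% DMSO, in triplicate. cMYC mRNA quantified by one-step TaqMan real-time PCR, Ct normalized to internal control (Cyclophilin primers used), fold expression relative to control.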
For orientation: Real-time PCR tracks product formation cycle by cycle.

The target in test [1] is T1, Brd4 bromodomain 1 (BRD4(1)) (Homo sapiens, UniProt O60885).
T1 construct: made in house; host or cells: E. coli BL21(DE3)
The experiment in a line: Inhibition of tetra-acetylated histone H4 binding to Brd4 bromodomain 1 (TR-FRET). Particulars: tetra-acetylated histone H4 peptide, first bromodomain of Brd4. The method in brief:
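His-tagged BRD4(1) from E. coli (200 nM) with biotinylated tetra-acetylated H4 peptide (25-50 nM), Eu-cryptate streptavidin and XL665 anti-His, in HEPES pH 7.4/phosphate/KF buffer, 0.2% DMSO. After 2 h at room temperature, TR-FRET 665/620 nm ratio read; IC50 from dose-response curves.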
For orientation: TR-FRET usually uses a lanthanide donor and a delayed reading to cut background.

Take `Cc1noc(C)c1-c1cnc2nc(NCCN3CCOCC3)n(Cc3ccccc3)c2c1` [compound 215, 1-benzyl-6-(3,5-dimethylisoxazol-4-yl)-N-(2-morpholinoethyl)-1H-imidazo[4,5-b]pyridin-2-amine]: the IC50 in the test with human AML MV-4-11 cells is 300 to 3000 nM; in the test with hIL-6 mRNA, ≤ 300 nM; in the test on c-myc it was ≤ 300 nM; in test [1], ≤ 300 nM.

Take `Cc1noc(C)c1-c1cc(N)c2nc(NCc3cccnc3)n(Cc3ccccc3)c2c1` [compound 157, 1-benzyl-6-(3,5-dimethylisoxazol-4-yl)-N2-(pyridin-3-ylmethyl)-1H-benzo[d]imidazole-2,4-diamine]: the IC50 (in the test with human AML MV-4-11 cells; with hIL-6 mRNA; in the test with c-myc; in test [1]) was ≤ 300 nM throughout.

Take `Cc1noc(C)c1-c1cc(C#N)c2nc(C)n(Cc3ccccc3)c2c1` [compound 85, 1-benzyl-6-(3,5-dimethylisoxazol-4-yl)-2-methyl-1H-benzo[d]imidazole-4-carbonitrile]: the results for the IC50 (with hIL-6 mRNA; with c-myc; in test [1]) were 300 to 3000 nM, ≤ 300 nM and ≤ 300 nM, respectively.

As to `Cc1noc(C)c1-c1cnc2nc(C)n(Cc3ccc(O)cc3)c2c1` [compound 84, 4-((6-(3,5-dimethylisoxazol-4-yl)-2-methyl-1H-imidazo[4,5-b]pyridin-1-yl)methyl)phenol], the IC50 is 300 to 3000 nM with human AML MV-4-11 cells, 300 to 3000 nM with hIL-6 mRNA, 300 to 3000 nM in the test on c-myc and ≤ 300 nM in test [1].

On to `Cc1noc(C)c1Nc1cnc2nc(C)n(Cc3ccccc3)c2c1` [compound 155, N-(1-benzyl-2-methyl-1H-imidazo[4,5-b]pyridin-6-yl)-3,5-dimethylisoxazol-4-amine], for which the “Cell Proliferation activity” value with human AML MV-4-11 cells is given as “Not active”. Moreover, the IC50 is 300 to 3000 nM in the test with hIL-6 mRNA, 3000 to 30000 nM in the test with c-myc and ≤ 300 nM in test [1].

With `Cc1noc(C)c1-c1cnc2c([N+](=O)[O-])cn(Cc3ccccc3)c2c1` [Example Compound 39, 4-(1-benzyl-3-nitro-1H-pyrrolo[3,2-b]pyridin-6-yl)-3,5-dimethylisoxazole], the IC50 with human AML MV-4-11 cells was 300 to 3000 nM; with hIL-6 mRNA it was 300 to 3000 nM; in the test on c-myc it was 300 to 3000 nM; in test [1], ≤ 300 nM.

Regarding `Cc1noc(C)c1-c1cc(N)c2[nH]c(=O)n(C(C)c3ccccc3)c2c1` (stereo not shown) [compound 115, 4-amino-6-(3,5-dimethylisoxazol-4-yl)-1-(1-phenylethyl)-1H-benzo[d]imidazol-2(3H)-one], the IC50 (with human AML MV-4-11 cells; with hIL-6 mRNA; in the test on c-myc; in test [1]) was ≤ 300 nM throughout.

For the compound `Cc1noc(C)c1-c1cc(C#N)c2[nH]c(=O)n(Cc3ccccc3)c2c1` [compound 86, 1-benzyl-6-(3,5-dimethylisoxazol-4-yl)-2-oxo-2,3-dihydro-1H-benzo[d]imidazole-4-carbonitrile], the IC50 with human AML MV-4-11 cells is 3000 to 30000 nM; in the test on hIL-6 mRNA, 300 to 3000 nM; in the test with c-myc, 300 to 3000 nM; in test [1], ≤ 300 nM.

Turning to `COCCNc1nc2c([N+](=O)[O-])cc(-c3c(C)noc3C)cc2n1Cc1ccccc1` [compound 137, 1-benzyl-6-(3,5-dimethylisoxazol-4-yl)-N-(2-methoxyethyl)-4-nitro-1H-benzo[d]imidazol-2-amine], the IC50 (in the test on human AML MV-4-11 cells; with hIL-6 mRNA; in test [1]) was ≤ 300 nM each time.

`Cc1noc(C)c1-c1cnc2nc(C)n(Cc3ccc(C#N)cc3)c2c1` [compound 70, 4-((6-(3,5-dimethylisoxazol-4-yl)-2-methyl-1H-imidazo[4,5-b]pyridin-1-yl)methyl)benzonitrile]: the IC50 in the test with human AML MV-4-11 cells is 3000 to 30000 nM; with hIL-6 mRNA, 300 to 3000 nM; in test [1], ≤ 300 nM.

`Cc1noc(C)c1-c1cc(N)c2c(c1)n(Cc1ccccc1)c(=O)n2C` [compound 162, 4-amino-1-benzyl-6-(3,5-dimethylisoxazol-4-yl)-3-methyl-1H-benzo[d]imidazol-2(3H)-one]: the IC50 (in the test on human AML MV-4-11 cells; with hIL-6 mRNA; in test [1]) was ≤ 300 nM each time.

For `Cc1noc(C)c1-c1cnc2c(c1)ncn2Cc1ccc(C(F)(F)F)cc1` [Example Compound 40, 3,5-dimethyl-4-(3-(4-(trifluoromethyl)benzyl)-3H-imidazo[4,5-b]pyridin-6-yl)isoxazole], the “Cell Proliferation activity” value with human AML MV-4-11 cells is “Not active”. Besides, the IC50 in the test with hIL-6 mRNA lay within 3000 to 30000 nM; in test [1], 300 to 3000 nM.

On to `Cc1noc(C)c1-c1ccc2[nH]cc(Nc3ccccc3)c2n1` [Example Compound 23, 5-(3,5-dimethylisoxazol-4-yl)-N-phenyl-1H-pyrrolo[3,2-b]pyridin-3-amine], for which the IC50 in the test with human AML MV-4-11 cells was 3000 to 30000 nM; in the test with hIL-6 mRNA, 300 to 3000 nM; in test [1], 300 to 3000 nM.

On to `Cc1noc(C)c1-c1cnc2ncn(Cc3ccc(C(F)(F)F)cc3)c2c1` [Example Compound 41, 3,5-dimethyl-4-(1-(4-(trifluoromethyl)benzyl)-1H-imidazo[4,5-b]pyridin-6-yl)isoxazole], for which the results for the IC50 (in the test with human AML MV-4-11 cells; with hIL-6 mRNA; in test [1]) were 300 to 3000 nM, 3000 to 30000 nM and ≤ 300 nM, respectively.

Take `Cc1noc(C)c1-c1cnc2ncn(Cc3ccc(Cl)cc3)c2c1` [Example Compound 43, 4-(1-(4-chlorobenzyl)-1H-imidazo[4,5-b]pyridin-6-yl)-3,5-dimethylisoxazole]: the IC50 is 300 to 3000 nM in the test on human AML MV-4-11 cells, 300 to 3000 nM in the test with hIL-6 mRNA and ≤ 300 nM in test [1].

With `Cc1nc2ncc(-c3ccnn3C)cc2n1Cc1ccccc1` [compound 154, 1-benzyl-2-methyl-6-(1-methyl-1H-pyrazol-5-yl)-1H-imidazo[4,5-b]pyridine], the results for the IC50 (in the test on human AML MV-4-11 cells; in the test on hIL-6 mRNA; in test [1]) were 3000 to 30000 nM, 3000 to 30000 nM and ≤ 300 nM, respectively.

With `Cc1noc(C)c1-c1cc2c(cn1)ncn2Cc1ccccc1` [Example Compound 31, 4-(1-benzyl-1H-imidazo[4,5-c]pyridin-6-yl)-3,5-dimethylisoxazole], the figures for the IC50 (in the test on human AML MV-4-11 cells; with hIL-6 mRNA; in test [1]) were 3000 to 30000 nM, 300 to 3000 nM and 300 to 3000 nM, respectively.

`Cc1noc(C)c1-c1cc([N+](=O)[O-])c2nc(N3CCCC3)n(Cc3ccccc3)c2c1` [compound 135, 4-(1-benzyl-4-nitro-2-(pyrrolidin-1-yl)-1H-benzo[d]imidazol-6-yl)-3,5-dimethylisoxazole]: the IC50 with human AML MV-4-11 cells is 300 to 3000 nM; in the test with hIL-6 mRNA, ≤ 300 nM; in test [1], ≤ 300 nM.

As to `Cc1noc(C)c1-c1cnc2nc(C)n(CC3CC3)c2c1` [Example Compound 63, 4-(1-(cyclopropylmethyl)-2-methyl-1H-imidazo[4,5-b]pyridin-6-yl)-3,5-dimethylisoxazole], the IC50 in the test with hIL-6 mRNA lay in the range of 300 to 3000 nM; in the test with c-myc, 3000 to 30000 nM; in test [1] it was 300 to 3000 nM.

Consider `Cc1noc(C)c1-c1cc([N+](=O)[O-])c2c(c1)n(Cc1ccccc1)c(=O)n2C` [compound 150, 1-benzyl-6-(3,5-dimethylisoxazol-4-yl)-3-methyl-4-nitro-1H-benzo[d]imidazol-2(3H)-one], for which the “Cell Proliferation activity” value in the test on human AML MV-4-11 cells is reported as “Not active”. Further, the IC50 in the test on hIL-6 mRNA is 300 to 3000 nM; in test [1], ≤ 300 nM.

As for `Cc1noc(C)c1-c1nc(N)c2ncn(Cc3ccccc3)c2n1` [Example Compound 1, 9-Benzyl-2-(3,5-dimethylisoxazol-4-yl)-9H-purin-6-amine], the “Cell Proliferation activity” value in the test with human AML MV-4-11 cells is “Not active”. Besides, the IC50 (with hIL-6 mRNA; in test [1]) was 300 to 3000 nM in each case.

In the case of `Cc1noc(C)c1-c1cc(C(N)=O)c2[nH]c(=O)n(Cc3ccccc3)c2c1` [Example Compound 21, 1-benzyl-6-(3,5-dimethylisoxazol-4-yl)-2-oxo-2,3-dihydro-1H-benzo[d]imidazole-4-carboxamide], the values for the IC50 (with human AML MV-4-11 cells; in the test on hIL-6 mRNA; in test [1]) were 300 to 3000 nM, ≤ 300 nM and ≤ 300 nM, respectively.

For the compound `Cc1noc(C)c1-c1cnc2nc(NC3CCC(O)CC3)n(Cc3ccccc3)c2c1` (stereo not shown) [compound 207, 4-((1-benzyl-6-(3,5-dimethylisoxazol-4-yl)-1H-imidazo[4,5-b]pyridin-2-yl)amino)cyclohexanol], the IC50 (with human AML MV-4-11 cells; in the test on hIL-6 mRNA; in test [1]) was ≤ 300 nM in each case.

Source of the values: US10363257B2 (ZENITH EPIGENETICS LTD., priority 2013, dated 2019).
